Target: T1, HDAC6 enzyme (Homo sapiens, UniProt Q9UBN7)
T1 construct: HDAC6 enzyme prepared by transducing full length HDAC6 gene into Sf-9 insect cells; GST; purchased SignalChem; host or cells: Sf-9 insect cells
T1 sequence (Q9UBN7 1-1215): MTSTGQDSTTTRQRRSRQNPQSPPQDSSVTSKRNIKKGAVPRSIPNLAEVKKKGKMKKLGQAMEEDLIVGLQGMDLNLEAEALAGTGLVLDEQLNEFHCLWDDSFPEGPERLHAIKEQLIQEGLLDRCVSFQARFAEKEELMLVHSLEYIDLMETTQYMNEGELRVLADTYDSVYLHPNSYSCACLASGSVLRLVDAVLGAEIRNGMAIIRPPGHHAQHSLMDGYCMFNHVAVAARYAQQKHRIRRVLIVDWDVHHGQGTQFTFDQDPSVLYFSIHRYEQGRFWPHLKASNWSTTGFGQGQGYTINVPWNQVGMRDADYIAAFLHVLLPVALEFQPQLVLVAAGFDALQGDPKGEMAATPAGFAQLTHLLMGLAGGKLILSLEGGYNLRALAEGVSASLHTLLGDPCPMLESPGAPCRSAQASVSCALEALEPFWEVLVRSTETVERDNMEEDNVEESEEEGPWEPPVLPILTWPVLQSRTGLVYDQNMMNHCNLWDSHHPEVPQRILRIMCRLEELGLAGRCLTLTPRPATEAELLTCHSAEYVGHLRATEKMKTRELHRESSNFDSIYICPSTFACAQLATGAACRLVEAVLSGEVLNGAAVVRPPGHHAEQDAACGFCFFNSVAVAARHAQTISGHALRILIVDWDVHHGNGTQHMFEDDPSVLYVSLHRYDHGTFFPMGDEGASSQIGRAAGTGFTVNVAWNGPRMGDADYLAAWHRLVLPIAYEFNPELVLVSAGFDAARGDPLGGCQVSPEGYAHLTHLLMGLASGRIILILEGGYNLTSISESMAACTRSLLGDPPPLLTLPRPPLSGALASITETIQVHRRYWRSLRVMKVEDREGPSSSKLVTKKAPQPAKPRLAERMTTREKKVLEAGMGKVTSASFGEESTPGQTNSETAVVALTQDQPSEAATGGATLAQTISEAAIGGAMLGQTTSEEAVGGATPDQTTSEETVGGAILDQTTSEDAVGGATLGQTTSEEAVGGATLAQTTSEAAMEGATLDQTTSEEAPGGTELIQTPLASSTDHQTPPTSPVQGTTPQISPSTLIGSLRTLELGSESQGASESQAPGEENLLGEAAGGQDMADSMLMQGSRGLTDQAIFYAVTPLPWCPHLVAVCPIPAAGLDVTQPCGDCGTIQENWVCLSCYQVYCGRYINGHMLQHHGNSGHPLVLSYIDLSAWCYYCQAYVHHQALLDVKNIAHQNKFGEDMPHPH
Test: HDAC6 enzyme inhibitory assay (HDAC-Glo I/II Assay kit)
Format: biochemical
Details: wells without enzyme = 100% inhibition; for inhibition at 10 µM: read-out: HDAC6 inhibitory rate (%) (10 μM)
Summary of the method: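 Full-length GST-purified HDAC6 from Sf-9 cells preincubated with compound 60 min at room temperature in Tris-HCl pH 7.5 buffer with MgCl2, KCl, NaCl, glutathione, Tween-20. Substrate-developer reaction 20 min, luminescence read; no-enzyme wells set as 100% inhibition.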

Row | Structure (SMILES) | inhibition at 10 µM | other results
1 | O=C1c2cc(-c3nnc(C(F)F)o3)ccc2CN1[C@H](c1ccc(F)cc1)[C@@H](O)C1CC1 (racemic) [Example 19, 2-[(1RS,2SR)-2-cyclopropyl-1-(4-fluorophenyl)-2-hydroxyethyl]-6-[5-(difluoromethyl)-1,3,4-oxadiazol-2-yl]-2,3-dihydro-1H-isoindol-1-one] | 99% | 
2 | O=C1c2cc(-c3nnc(C(F)F)o3)ccc2CN1[C@H](c1cc(F)c(F)c(F)c1)[C@@H](O)c1ccccn1 (racemic) [Example 15, 6-[5-(difluoromethyl)-1,3,4-oxadiazol-2-yl]-2-[(1RS,2RS)-2-hydroxy-2-(pyridin-2-yl)-1-(3,4,5-trifluorophenyl)ethyl]-2,3-dihydro-1H-isoindol-1-one] | 99% | 
3 | O=C1c2cc(-c3nnc(C(F)F)o3)ccc2CN1[C@H](c1ccccc1)[C@@H](O)c1cccc(F)c1 (racemic) [Example 23, 6-[5-(difluoromethyl)-1,3,4-oxadiazol-2-yl]-2-[(1RS,2SR)-2-(3-fluorophenyl)-2-hydroxy-1-phenylethyl]-2,3-dihydro-1H-isoindol-1-one] | 100% | 
4 | N#Cc1cccc([C@H]([C@@H](O)c2ccccc2)N2Cc3ccc(-c4nnc(C(F)F)o4)cc3C2=O)c1 (racemic) [Example 40, 3-[(1RS,2SR)-1-{6-[5-(difluoromethyl)-1,3,4-oxadiazol-2-yl]-1-oxo-1,3-dihydro-2H-isoindol-2-yl}-2-hydroxy-2-phenylethyl]benzonitrile] | 100% | 
5 | O=C1c2cc(-c3nnc(C(F)F)o3)ccc2CN1[C@H](C1CCOCC1)[C@@H](O)c1cccc(Cl)c1 (single isomer, unassigned) [Example 71, 2-[(1R*,2S*)-2-(3-chlorophenyl)-2-hydroxy-1-(oxan-4-yl)ethyl]-6-[5-(difluoromethyl)-1,3,4-oxadiazol-2-yl]-2,3-dihydro-1H-isoindol-1-one] |  | HDAC6 inhibitory rate (%) (10 μM): 101%
6 | O=C1c2cc(-c3nnc(C(F)F)o3)ccc2CN1[C@H](c1ccc(F)cc1)[C@@H](O)c1ccccc1F (racemic) [Example 29, 6-[5-(difluoromethyl)-1,3,4-oxadiazol-2-yl]-2-[(1RS,2SR)-2-(2-fluorophenyl)-1-(4-fluorophenyl)-2-hydroxyethyl]-2,3-dihydro-1H-isoindol-1-one] | 99% | 
7 | O=C1c2cc(-c3nnc(C(F)F)o3)ccc2CN1[C@@H](c1ccc(F)cn1)[C@H](O)c1ccc(F)cn1 (stereo in doubt) [Example 6, 2-[(1S,2S)-1,2-bis(5-fluoropyridin-2-yl)-2-hydroxyethyl]-6-[5-(difluoromethyl)-1,3,4-oxadiazol-2-yl]-2,3-dihydro-1H-isoindol-1-one] | 100% | 
8 | O=C1c2cc(-c3nnc(C(F)F)o3)ccc2CN1[C@H](c1ccccn1)[C@@H](O)c1ccc(C(F)(F)F)cn1 (single isomer, unassigned) [Example 105, 6-[5-(difluoromethyl)-1,3,4-oxadiazol-2-yl]-2-{(1R*,2R*)-2-hydroxy-1-(pyridin-2-yl)-2-[5-(trifluoromethyl)pyridin-2-yl]ethyl}-2,3-dihydro-1H-isoindol-1-one] |  | HDAC6 inhibitory rate (%) (10 μM) (10 µM): 99%
9 | Cn1cc([C@H]([C@@H](O)c2ccc(F)cc2)N2Cc3ccc(-c4nnc(C(F)F)o4)cc3C2=O)cn1 (racemic) [Example 43, 6-[5-(difluoromethyl)-1,3,4-oxadiazol-2-yl]-2-[(1RS,2SR)-2-(4-fluorophenyl)-2-hydroxy-1-(1-methyl-1H-pyrazol-4-yl)ethyl]-2,3-dihydro-1H-isoindol-1-one] | 100% | 
10 | O=C1c2cc(-c3nnc(C(F)F)o3)ccc2CN1[C@H](C1CC1)[C@@H](O)c1cccc(Cl)n1 (single isomer, unassigned) [Example 130, 2-[(1R*,2R*)-2-(6-chloropyridin-2-yl)-1-cyclopropyl-2-hydroxyethyl]-6-[5-(difluoromethyl)-1,3,4-oxadiazol-2-yl]-2,3-dihydro-1H-isoindol-1-one] |  | HDAC6 inhibitory rate (%) (10 μM) (10 µM): 98%
11 | O=C1c2cc(-c3nnc(C(F)F)o3)ccc2CN1[C@@H](c1ccccc1)[C@@H](O)c1ccccc1 [Example 13, 6-[5-(difluoromethyl)-1,3,4-oxadiazol-2-yl]-2-[(1S,2S)-2-hydroxy-1,2-diphenylethyl]-2,3-dihydro-1H-isoindol-1-one] | 99% | 
12 | O=C1c2cc(-c3nnc(C(F)F)o3)ccc2CN1[C@H](c1ccc(F)nc1)[C@@H](O)c1ccc(F)c(F)c1 (racemic) [Example 56, 6-[5-(difluoromethyl)-1,3,4-oxadiazol-2-yl]-2-[(1RS,2SR)-2-(3,4-difluorophenyl)-1-(6-fluoropyridin-3-yl)-2-hydroxyethyl]-2,3-dihydro-1H-isoindol-1-one] | 100% | 

The next lines start with results.

Row | inhibition at 10 µM | Structure (SMILES) | other results
13 | 100% | O=C1c2cc(-c3nnc(C(F)F)o3)ccc2CN1[C@H](c1ccccn1)[C@@H](O)c1ccc(C(F)(F)F)cn1 (single isomer, unassigned) [Example 104, 6-[5-(difluoromethyl)-1,3,4-oxadiazol-2-yl]-2-{(1R*,2R*)-2-hydroxy-1-(pyridin-2-yl)-2-[5-(trifluoromethyl)pyridin-2-yl]ethyl}-2,3-dihydro-1H-isoindol-1-one] | 
14 | 99% | O=C1c2cc(-c3nnc(C(F)F)o3)ccc2CN1[C@H](c1ccccn1)[C@@H](O)c1ccc(Cl)cn1 (single isomer, unassigned) [Example 112, 2-[(1R*,2R*)-2-(5-chloropyridin-2-yl)-2-hydroxy-1-(pyridin-2-yl)ethyl]-6-[5-(difluoromethyl)-1,3,4-oxadiazol-2-yl]-2,3-dihydro-1H-isoindol-1-one] | 
15 | 101% | O=C1c2cc(-c3nnc(C(F)F)o3)ccc2CN1[C@H](c1cccc(F)n1)[C@@H](O)c1cccc(F)n1 (single isomer, unassigned) [Example 117, 2-[(1R*,2R*)-1,2-bis(6-fluoropyridin-2-yl)-2-hydroxyethyl]-6-[5-(difluoromethyl)-1,3,4-oxadiazol-2-yl]-2,3-dihydro-1H-isoindol-1-one] | 
16 | 100% | O=C1c2cc(-c3nnc(C(F)F)o3)ccc2CN1[C@H](c1ccc(F)cn1)[C@@H](O)c1ccccn1 (single isomer, unassigned) [Example 59, 6-[5-(difluoromethyl)-1,3,4-oxadiazol-2-yl]-2-[(1R*,2R*)-1-(5-fluoropyridin-2-yl)-2-hydroxy-2-(pyridin-2-yl)ethyl]-2,3-dihydro-1H-isoindol-1-one] | 

From patent publication US12384770B2, “Heterocyclic compound” (Takeda Pharmaceutical Company Limited, priority 2019, dated 2025)
